Assay results published in patent US20080009418A1, “Selective Inhibitors” (Alchemia LTD., priority 2004, published 2008).

Experiments:
Human δ-opioid (DOP) = target: T1, Human δ-opioid (DOP) (Homo sapiens, UniProt P41143); assay: Radioligand binding, human δ-opioid (DOP) membranes, FlashPlate, [3H]-Bremazocine; settings: compound at 10 μM; [3H]-Bremazocine
T1 construct: purchased Perkin Elmer Biosignal
In short: (§1)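 Cloned human receptor membranes were coated onto FlashPlate wells and incubated with radioligand and compound (added from a 0.5 mM DMSO daughter plate) for 1 hour at room temperature in the dark. Scintillation counting gave percent inhibition, with DMSO defining total and reference ligand defining non-specific binding.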

Human κ-Opioid (KOP) = target: T2, Human κ-Opioid (KOP) (Homo sapiens, UniProt P41145); assay: Radioligand binding, human κ-opioid (KOP) membranes, filtration, [3H]-Diprenorphine; settings: compound at 10 μM; [3H]-Diprenorphine
T2 construct: purchased Perkin Elmer Biosignal
In short: (§2)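 Filtration binding on cloned human receptor membranes (1 Unit/well), [125I]-Substance P for NK1 and [3H]-Diprenorphine for KOP, 1 h at room temperature. Filters PEI-presoaked, washed with cold 50 mM Tris-HCl pH 7.4, counted by scintillation; percent inhibition calculated, reference ligand defining non-specific binding.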

Human Melanocortin (MC3) = target: T3, Human Melanocortin (MC3) (Homo sapiens, UniProt P41968); assay: Radioligand binding, human melanocortin MC3 membranes, FlashPlate, [125I]-NDP-αMSH; settings: compound at 10 μM; [125I]-NDP-αMSH
T3 construct: purchased Perkin Elmer Biosignal
In short: as §1

Human Melanocortin (MC4) = target: T4, Human Melanocortin (MC4) (Homo sapiens, UniProt P32245); assay: Radioligand binding, human melanocortin MC4 membranes, FlashPlate, [125I]-NDP-αMSH; settings: compound at 10 μM; [125I]-NDP-αMSH
T4 construct: purchased Perkin Elmer Biosignal
In short: as §1

Human melanocortin (MC5) = target: T5, Human melanocortin (MC5) (Homo sapiens, UniProt P33032); assay: Radioligand binding, human melanocortin MC5 membranes, FlashPlate, [125I]-NDP-αMSH; settings: compound at 10 μM; [125I]-NDP-αMSH
T5 construct: purchased Perkin Elmer Biosignal
In short: as §1

[1] = target: T6, Human melanin-concentrating hormone (MCH1) (Homo sapiens, UniProt Q99705); assay: Radioligand binding, human melanin-concentrating hormone MCH1 membranes, FlashPlate, [125I]-S36057; settings: compound at 10 μM; [125I]-S36057
T6 construct: purchased Perkin Elmer Biosignal
In short: as §1

Human μ-opioid (MOP) = target: T7, Human μ-opioid (MOP) (Homo sapiens, UniProt P35372); assay: Radioligand binding, human μ-opioid (MOP) membranes, FlashPlate, [3H]-Naloxone; settings: compound at 10 μM; [3H]-Naloxone
T7 construct: purchased Perkin Elmer Biosignal
In short: as §1

Human neurokinin (NK1) = target: T8, Human neurokinin (NK1) (Homo sapiens, UniProt P25103); assay: Radioligand binding, human neurokinin NK1 membranes, filtration, [125I]-Substance P; settings: compound at 10 μM; [125I]-Substance P
T8 construct: purchased Perkin Elmer Biosignal
In short: as §2

[2] = target: T9, Human neuropeptide Y (NPY-Y1) (Homo sapiens, UniProt P25929); assay: Radioligand binding, human neuropeptide Y NPY-Y1 membranes, FlashPlate, [125I]-PYY; settings: compound at 10 μM; [125I]-PYY
T9 construct: purchased Perkin Elmer Biosignal
T9 sequence (P25929 1-384): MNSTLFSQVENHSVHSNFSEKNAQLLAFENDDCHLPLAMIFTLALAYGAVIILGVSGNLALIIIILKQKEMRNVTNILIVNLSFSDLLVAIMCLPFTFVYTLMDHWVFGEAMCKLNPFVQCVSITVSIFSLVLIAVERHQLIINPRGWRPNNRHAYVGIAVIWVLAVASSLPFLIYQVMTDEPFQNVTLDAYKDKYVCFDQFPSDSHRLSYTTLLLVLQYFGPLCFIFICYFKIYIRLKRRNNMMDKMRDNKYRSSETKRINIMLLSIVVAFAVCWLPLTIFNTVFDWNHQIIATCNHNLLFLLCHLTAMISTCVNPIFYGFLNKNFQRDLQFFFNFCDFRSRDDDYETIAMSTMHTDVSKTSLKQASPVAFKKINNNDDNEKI
In short: as §1

Human opioid (ORL1) = target: T10, Human opioid (ORL1) (Homo sapiens, UniProt P41146); assay: Radioligand binding, human opioid ORL1 membranes, FlashPlate, [125I]-Nociceptin; settings: compound at 10 μM; [125I]-Nociceptin
T10 construct: purchased Perkin Elmer Biosignal
In short: as §1

Mouse urotensin (mUR2) = target: T11, Mouse urotensin (mUR2) (Mus musculus, UniProt Q8VIH9); assay: Radioligand binding, mouse urotensin mUR2 membranes, FlashPlate, [125I]-Urotensin II; settings: compound at 10 μM; [125I]-Urotensin II
T11 construct: purchased Perkin Elmer Biosignal
T11 sequence (Q8VIH9 1-385): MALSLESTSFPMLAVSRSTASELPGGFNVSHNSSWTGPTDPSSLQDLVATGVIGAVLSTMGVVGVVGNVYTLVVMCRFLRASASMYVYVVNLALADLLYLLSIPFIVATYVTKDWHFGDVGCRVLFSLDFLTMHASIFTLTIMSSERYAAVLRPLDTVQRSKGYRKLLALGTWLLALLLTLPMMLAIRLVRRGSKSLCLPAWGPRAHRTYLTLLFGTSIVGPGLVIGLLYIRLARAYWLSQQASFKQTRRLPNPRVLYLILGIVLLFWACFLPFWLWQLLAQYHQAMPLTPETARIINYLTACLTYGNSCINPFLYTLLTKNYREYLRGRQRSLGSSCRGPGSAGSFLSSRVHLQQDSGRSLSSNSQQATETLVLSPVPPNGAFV
In short: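 Cloned mouse urotensin (mUR2) receptor membranes from Perkin Elmer Biosignal were immobilized in FlashPlate microplates using a proprietary coating. Each well got 19.5 μl buffer, then 0.5 μl of DMSO, reference ligand, or compound. Adding 5 μl of [125I]-Urotensin II, diluted to 5× final concentration in binding buffer, started binding. Plates were sealed with TopSeal-A and incubated 1 hour at room temperature in the dark. Wells were counted for 30 seconds each on a TopCount after a 60-second delay, and percentage inhibition was calculated.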

T10 sequence (P41146 whole entry): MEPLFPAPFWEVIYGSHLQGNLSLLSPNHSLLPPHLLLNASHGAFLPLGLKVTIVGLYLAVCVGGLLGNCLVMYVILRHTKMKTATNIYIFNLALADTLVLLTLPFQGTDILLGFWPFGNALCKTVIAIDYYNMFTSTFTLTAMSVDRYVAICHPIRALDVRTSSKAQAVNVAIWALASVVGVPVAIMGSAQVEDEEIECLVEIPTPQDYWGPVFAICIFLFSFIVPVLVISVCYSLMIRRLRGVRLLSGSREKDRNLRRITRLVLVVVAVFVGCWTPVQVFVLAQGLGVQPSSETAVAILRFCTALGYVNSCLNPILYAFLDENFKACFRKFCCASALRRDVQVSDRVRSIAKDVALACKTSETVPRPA
T2 sequence (P41145 whole entry): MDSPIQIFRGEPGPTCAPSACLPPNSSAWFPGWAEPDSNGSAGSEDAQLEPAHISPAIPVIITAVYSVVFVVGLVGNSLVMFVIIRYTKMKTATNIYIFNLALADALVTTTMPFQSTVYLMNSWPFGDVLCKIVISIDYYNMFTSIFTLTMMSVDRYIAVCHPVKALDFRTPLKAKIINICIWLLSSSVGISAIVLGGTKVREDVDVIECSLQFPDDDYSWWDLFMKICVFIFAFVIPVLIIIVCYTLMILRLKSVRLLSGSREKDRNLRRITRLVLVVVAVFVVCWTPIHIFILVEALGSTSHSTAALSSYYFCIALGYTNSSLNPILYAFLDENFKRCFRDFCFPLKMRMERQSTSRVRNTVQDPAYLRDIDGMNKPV
T1 sequence (P41143 whole entry): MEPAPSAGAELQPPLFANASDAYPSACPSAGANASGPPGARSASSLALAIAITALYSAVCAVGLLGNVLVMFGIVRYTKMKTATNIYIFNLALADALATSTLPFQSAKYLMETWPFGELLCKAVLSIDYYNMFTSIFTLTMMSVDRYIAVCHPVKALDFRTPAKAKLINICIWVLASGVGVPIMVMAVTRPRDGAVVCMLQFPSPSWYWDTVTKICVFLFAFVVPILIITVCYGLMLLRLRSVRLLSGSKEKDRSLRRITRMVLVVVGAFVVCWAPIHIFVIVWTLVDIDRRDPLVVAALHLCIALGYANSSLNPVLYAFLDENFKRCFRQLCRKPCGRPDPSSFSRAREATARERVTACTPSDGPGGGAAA
T6 sequence (Q99705 whole entry): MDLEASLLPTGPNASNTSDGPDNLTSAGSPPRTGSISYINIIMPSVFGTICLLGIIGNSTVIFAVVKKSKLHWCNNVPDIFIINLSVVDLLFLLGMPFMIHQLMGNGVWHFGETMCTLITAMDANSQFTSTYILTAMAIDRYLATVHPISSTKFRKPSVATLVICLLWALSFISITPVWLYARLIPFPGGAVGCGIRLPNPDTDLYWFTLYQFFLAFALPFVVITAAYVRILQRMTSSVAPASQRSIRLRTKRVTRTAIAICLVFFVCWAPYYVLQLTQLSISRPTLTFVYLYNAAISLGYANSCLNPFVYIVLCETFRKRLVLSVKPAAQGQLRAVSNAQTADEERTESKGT
T8 sequence (P25103 whole entry): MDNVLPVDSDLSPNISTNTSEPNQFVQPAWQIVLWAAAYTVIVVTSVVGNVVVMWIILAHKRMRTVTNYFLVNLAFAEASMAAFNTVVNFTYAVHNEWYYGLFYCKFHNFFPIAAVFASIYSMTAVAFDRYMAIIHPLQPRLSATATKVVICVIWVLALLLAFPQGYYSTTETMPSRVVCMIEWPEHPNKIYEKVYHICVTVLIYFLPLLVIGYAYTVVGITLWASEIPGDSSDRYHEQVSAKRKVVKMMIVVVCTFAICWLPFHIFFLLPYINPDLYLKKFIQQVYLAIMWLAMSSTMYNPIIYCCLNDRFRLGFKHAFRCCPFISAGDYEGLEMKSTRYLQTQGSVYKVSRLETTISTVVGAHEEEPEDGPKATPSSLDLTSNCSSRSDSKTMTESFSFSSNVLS
T7 sequence (P35372 whole entry): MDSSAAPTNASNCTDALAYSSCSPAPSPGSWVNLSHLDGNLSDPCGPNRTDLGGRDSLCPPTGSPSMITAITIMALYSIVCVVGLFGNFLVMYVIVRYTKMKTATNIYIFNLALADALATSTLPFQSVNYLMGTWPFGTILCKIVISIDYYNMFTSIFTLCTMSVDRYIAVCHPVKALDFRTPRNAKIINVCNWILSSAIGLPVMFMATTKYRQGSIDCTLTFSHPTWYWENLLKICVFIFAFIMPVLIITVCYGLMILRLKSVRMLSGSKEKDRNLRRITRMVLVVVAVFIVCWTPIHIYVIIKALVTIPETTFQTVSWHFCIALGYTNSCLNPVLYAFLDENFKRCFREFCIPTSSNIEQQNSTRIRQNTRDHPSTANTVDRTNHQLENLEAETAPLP
T3 sequence (P41968 whole entry): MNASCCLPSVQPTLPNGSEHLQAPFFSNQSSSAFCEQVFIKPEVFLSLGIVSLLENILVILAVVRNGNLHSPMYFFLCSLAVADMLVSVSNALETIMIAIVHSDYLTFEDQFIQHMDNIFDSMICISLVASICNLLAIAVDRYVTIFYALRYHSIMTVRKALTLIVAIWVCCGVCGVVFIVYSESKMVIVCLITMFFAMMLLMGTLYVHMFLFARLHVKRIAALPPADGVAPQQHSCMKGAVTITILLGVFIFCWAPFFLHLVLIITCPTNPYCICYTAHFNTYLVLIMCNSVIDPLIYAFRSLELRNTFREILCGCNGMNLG
T5 sequence (P33032 whole entry): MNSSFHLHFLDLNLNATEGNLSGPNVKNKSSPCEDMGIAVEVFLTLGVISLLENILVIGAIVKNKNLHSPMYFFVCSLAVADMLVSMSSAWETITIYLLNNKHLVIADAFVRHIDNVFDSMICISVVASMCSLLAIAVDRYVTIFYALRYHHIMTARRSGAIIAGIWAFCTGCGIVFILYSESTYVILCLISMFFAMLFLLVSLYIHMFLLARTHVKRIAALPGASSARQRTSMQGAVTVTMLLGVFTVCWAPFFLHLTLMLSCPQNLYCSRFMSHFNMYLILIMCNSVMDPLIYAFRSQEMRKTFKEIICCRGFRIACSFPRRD
T4 sequence (P32245 whole entry): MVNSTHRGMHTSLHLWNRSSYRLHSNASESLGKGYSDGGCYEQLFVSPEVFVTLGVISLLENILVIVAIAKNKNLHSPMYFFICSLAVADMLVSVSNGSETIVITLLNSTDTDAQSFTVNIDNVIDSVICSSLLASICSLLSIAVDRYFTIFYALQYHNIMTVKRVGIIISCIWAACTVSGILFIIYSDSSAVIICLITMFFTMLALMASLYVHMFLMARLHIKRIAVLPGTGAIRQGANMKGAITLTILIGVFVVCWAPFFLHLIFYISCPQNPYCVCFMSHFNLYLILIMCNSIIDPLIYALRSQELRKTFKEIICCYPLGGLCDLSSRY

Compound	A1: inhibition of radioligand binding, human δ-opioid (DOP) (Human δ-opioid (DOP))	A2: inhibition of radioligand binding, human κ-opioid (KOP) (Human κ-Opioid (KOP))	A3: inhibition of radioligand binding, human melanocortin (MC3) (Human Melanocortin (MC3))	A4: inhibition of radioligand binding, human melanocortin (MC4) (Human Melanocortin (MC4))	A5: inhibition of radioligand binding, human melanocortin (MC5) (Human melanocortin (MC5))	A6: inhibition of radioligand binding, human melanin-concentrating hormone (MCH1) [1]	A7: inhibition of radioligand binding, human μ-opioid (MOP) (Human μ-opioid (MOP))	A8: inhibition of radioligand binding, human neurokinin (NK1) (Human neurokinin (NK1))	A9: inhibition of radioligand binding, human neuropeptide Y (NPY-Y1) [2]	A10: inhibition of radioligand binding, human opioid (ORL1) (Human opioid (ORL1))	A11: inhibition of radioligand binding, mouse urotensin (mUR2) (Mouse urotensin (mUR2))
COC1C(O)C(COCc2ccc3ccccc3c2)OC(OCc2ccc(Cl)cc2)C1NC(=O)C1CCCN(C(=N)N)C1 (stereo not shown) [compound 348]	− (“−” indicates less than 50% inhibition at 10 μM)	− (“−” indicates less than 50% inhibition at 10 μM)	− (“−” indicates less than 50% inhibition at 10 μM)	− (“−” indicates less than 50% inhibition at 10 μM)	+ (“+” indicates greater than 50% inhibition at 10 μM)	− (“−” indicates less than 50% inhibition at 10 μM)	− (“−” indicates less than 50% inhibition at 10 μM)	+ (“+” indicates greater than 50% inhibition at 10 μM)	− (“−” indicates less than 50% inhibition at 10 μM)	− (“−” indicates less than 50% inhibition at 10 μM)	− (“−” indicates less than 50% inhibition at 10 μM)
COC1C(O)C(COCc2ccc3ccccc3c2)OC(OCc2ccc(Cl)cc2)C1NC(=O)C1CCN(C(=N)N)CC1 (stereo not shown) [compound 349]	− (“−” indicates less than 50% inhibition at 10 μM)	− (“−” indicates less than 50% inhibition at 10 μM)	− (“−” indicates less than 50% inhibition at 10 μM)	− (“−” indicates less than 50% inhibition at 10 μM)	+ (“+” indicates greater than 50% inhibition at 10 μM)	− (“−” indicates less than 50% inhibition at 10 μM)	− (“−” indicates less than 50% inhibition at 10 μM)	+ (“+” indicates greater than 50% inhibition at 10 μM)	− (“−” indicates less than 50% inhibition at 10 μM)	− (“−” indicates less than 50% inhibition at 10 μM)	− (“−” indicates less than 50% inhibition at 10 μM)
COC1C(O)C(COCc2ccc3ccccc3c2)OC(OCc2ccc(Cl)cc2)C1NC(=O)CNC(=N)N (stereo not shown) [compound 350]	− (“−” indicates less than 50% inhibition at 10 μM)	− (“−” indicates less than 50% inhibition at 10 μM)	− (“−” indicates less than 50% inhibition at 10 μM)	− (“−” indicates less than 50% inhibition at 10 μM)	+ (“+” indicates greater than 50% inhibition at 10 μM)	− (“−” indicates less than 50% inhibition at 10 μM)	− (“−” indicates less than 50% inhibition at 10 μM)	+ (“+” indicates greater than 50% inhibition at 10 μM)	− (“−” indicates less than 50% inhibition at 10 μM)	− (“−” indicates less than 50% inhibition at 10 μM)	− (“−” indicates less than 50% inhibition at 10 μM)
CO[C@H]1[C@H](O)[C@@H](COCc2ccc3ccccc3c2)OC(OCc2ccc(Cl)cc2)[C@@H]1NC(=O)C(N)CN (stereo partly shown) [compound 351]	− (“−” indicates less than 50% inhibition at 10 μM)	− (“−” indicates less than 50% inhibition at 10 μM)	− (“−” indicates less than 50% inhibition at 10 μM)	− (“−” indicates less than 50% inhibition at 10 μM)	− (“−” indicates less than 50% inhibition at 10 μM)	− (“−” indicates less than 50% inhibition at 10 μM)	− (“−” indicates less than 50% inhibition at 10 μM)	+ (“+” indicates greater than 50% inhibition at 10 μM)	− (“−” indicates less than 50% inhibition at 10 μM)	− (“−” indicates less than 50% inhibition at 10 μM)	− (“−” indicates less than 50% inhibition at 10 μM)
CO[C@H]1[C@H](O)[C@@H](COCc2ccc3ccccc3c2)OC(OCc2ccc(Cl)cc2)[C@@H]1NC(=O)C1CCCN1 (stereo partly shown) [compound 352]	− (“−” indicates less than 50% inhibition at 10 μM)	− (“−” indicates less than 50% inhibition at 10 μM)	− (“−” indicates less than 50% inhibition at 10 μM)	− (“−” indicates less than 50% inhibition at 10 μM)	− (“−” indicates less than 50% inhibition at 10 μM)	− (“−” indicates less than 50% inhibition at 10 μM)	− (“−” indicates less than 50% inhibition at 10 μM)	+ (“+” indicates greater than 50% inhibition at 10 μM)	− (“−” indicates less than 50% inhibition at 10 μM)	− (“−” indicates less than 50% inhibition at 10 μM)	− (“−” indicates less than 50% inhibition at 10 μM)
